Assays:
[1] = test system: Jurkat E6.1 cells; experiment: Anti-Fas induced apoptosis assay; type: cell-based; conditions: Homo sapiens, anti-Fas antibody CH-11 10 ng/ml, 16-18 hrs, DNA fragmentation, OD405 nm
From the text: Cellular apoptosis may be induced by the binding of Fas ligand (FasL) to its receptor, CD95 (Fas). CD95 is one of a family of related receptors, known as death receptors, which can trigger apoptosis in cells via activation of the caspase enzyme cascade. The process is initiated by the binding of the adapter molecule FADD/MORT-1 to the cytoplasmic domain of the CD-95 receptor-ligand complex. Caspase-8 then binds FADD and becomes activated, initiating a cascade of events that involve the activation of downstream caspases and subsequent cellular apoptosis. Apoptosis can also be induced in cells expressing CD95 eg the Jurkat E6.1 T cell lymphoma cell line, using an antibody, rather than FasL, to crosslink the cell surface CD95. Anti-Fas-induced apoptosis is also triggered via the activation of caspase-8. This provides the basis of a cell based assay to screen compounds for inhibition of the caspase-8-mediated apoptotic pathway.
Jurkat E6.1 cells are cultured in complete medium consisting of RPMI-1640 (Sigma No)+10% foetal calf serum (Gibco BRL No. 10099-141)+2 mM L-glutamine (Sigma No. G-7513). The cells are harvested in log phase of growth. 100 ml Cells at 5-8×10^5 cells/ml are transferred to sterile 50 ml Falcon centrifuge tubes and centrifuged for 5 minutes at 100×g at room temperature. The supernatant is removed and the combined cell pellets resuspended in 25 ml of complete medium. The cells are counted and the density adjusted to 2×10^6cells/ml with complete medium.
The test compound is dissolved in dimethyl sulphoxide (DMSO)(Sigma No. D-2650) to give a 100 mM stock solution. This is diluted to 400 μM in complete medium, then serially diluted in a 96-well plate prior to addition to the cell assay plate.
100 μl of the cell suspension ([…]) is added to each well of a sterile 96-well round-bottomed cluster plate (Costar No. 3790). 501l of compound solution at the appropriate dilution and 50 μl of anti-Fas antibody, clone CH-11 (Kamiya No.MC-060) at a final concentration of 10 ng/ml, are added to the wells. Control wells are set up minus antibody and minus compound but with a serial dilution of DMSO as vehicle control. The plates are incubated for 16-18 hrs at 37° C. in 5% CO2 and 95% humidity.
Apoptosis of the cells is measured by the quantitation of DNA fragmentation using a ‘Cell Death Detection Assay’ from Boehringer-Mannheim, No. 1544 675. After incubation for 16-18 hrs the assay plates are centrifuged at 100×g at room temperature for 5 minutes. 150 μl of the supernatant are removed and replaced by 150 μl of fresh complete medium. The cells are then harvested and 200 μl of the lysis buffer supplied in the assay kit are added to each well. The cells are triturated to ensure complete lysis and incubated for 30 minutes at 4° C. The plates are then centrifuged at 1900×g for 10 minutes and the supernatants diluted 1:20 in the incubation buffer provided. 100 μl of this solution is then assayed exactly according to the manufacturer's instructions supplied with the kit. OD405 nm is measured 20 minutes after addition of the final substrate in a SPECTRAmax Plus plate reader (Molecular Devices). OD405 nm is plotted versus compound concentration and the IC50 values for the compounds are calculated using the curve fitting program SOFTmax Pro (Molecular Devices) using the four parameter fit option.

[2] = biological target: Caspase-8 (Homo sapiens, UniProt Q14790); experiment: Caspase-8 enzyme assay, cleavage of fluorogenic substrate; type: biochemical; conditions: second order rate constant of enzyme inactivation; substrate Acetyl-Asp-Glu-val-Asp-amino-4-methylcoumarin
Chain of Caspase-8 (Q14790 217-374 limits assumed): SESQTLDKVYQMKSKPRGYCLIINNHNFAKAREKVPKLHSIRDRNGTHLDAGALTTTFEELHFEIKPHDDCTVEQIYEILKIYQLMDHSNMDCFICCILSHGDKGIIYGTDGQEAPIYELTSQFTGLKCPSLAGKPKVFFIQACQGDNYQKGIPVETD
Chain of Caspase-8 (Q14790 385-479 limits assumed): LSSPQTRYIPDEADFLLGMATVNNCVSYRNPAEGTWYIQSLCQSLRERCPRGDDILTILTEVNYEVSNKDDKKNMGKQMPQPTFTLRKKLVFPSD
From the text: (§1) The assays for caspase inhibition are based on the cleavage of a fluorogenic substrate by recombinant, purified human Caspases-1, -3, -7 or -8. The assays are run in essentially the same way as those reported by Garcia-Calvo et al. (J. Biol. Chem. 273 (1998), 32608-32613), using a substrate specific for each enzyme. The substrate for Caspase-1 is Acetyl-Tyr-Val-Ala-Asp-amino-4-methylcoumarin. The substrate for Caspases-3, -7 and -8 is Acetyl-Asp-Glu-val-Asp-amino-4-methylcoumarin.
(§2) The observed rate of enzyme inactivation at a particular inhibitor concentration, kobs, is computed by direct fits of the data to the equation derived by Thornberry et al. (Biochemistry 33 (1994), 3943-3939) using a nonlinear least-squares analysis computer program (PRISM 2.0; GraphPad software). To obtain the second order rate constant, kinact, kobs values are plotted against their respective inhibitor concentrations and kinact values are subsequently calculated by computerized linear regression.

[3] = biological target: T1, Caspase-3 (Homo sapiens, UniProt P42574); experiment: Caspase-3 enzyme assay, cleavage of fluorogenic substrate; type: biochemical; conditions: second order rate constant of enzyme inactivation; substrate Acetyl-Asp-Glu-val-Asp-amino-4-methylcoumarin
T1 sequence (P42574 29-175 limits assumed): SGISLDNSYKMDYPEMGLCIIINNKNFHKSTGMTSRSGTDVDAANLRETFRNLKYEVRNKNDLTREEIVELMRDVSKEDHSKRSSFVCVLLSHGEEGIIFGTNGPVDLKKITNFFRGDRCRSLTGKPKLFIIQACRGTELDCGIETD
T1 sequence (P42574 176-277 limits assumed): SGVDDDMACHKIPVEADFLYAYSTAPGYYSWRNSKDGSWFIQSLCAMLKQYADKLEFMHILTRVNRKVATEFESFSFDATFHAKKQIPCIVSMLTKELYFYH
From the text: as §1, §2

[4] = biological target: T2, Caspase-1 (Homo sapiens, UniProt P29466); experiment: Caspase-1 enzyme assay, cleavage of fluorogenic substrate; type: biochemical; conditions: second order rate constant of enzyme inactivation; substrate Acetyl-Tyr-Val-Ala-Asp-amino-4-methylcoumarin
T2 sequence (P29466 120-297 limits assumed): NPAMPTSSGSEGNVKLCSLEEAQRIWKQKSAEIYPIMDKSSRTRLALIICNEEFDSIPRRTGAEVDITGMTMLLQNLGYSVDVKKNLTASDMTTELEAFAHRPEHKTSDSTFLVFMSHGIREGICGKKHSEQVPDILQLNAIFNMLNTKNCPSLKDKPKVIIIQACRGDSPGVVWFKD
T2 sequence (P29466 317-404 limits assumed): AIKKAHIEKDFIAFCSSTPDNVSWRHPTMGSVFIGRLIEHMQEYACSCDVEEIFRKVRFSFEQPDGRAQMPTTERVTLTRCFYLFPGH
From the text: as §1, §2

[5] = biological target: T3, Caspase-7 (Homo sapiens, UniProt P55210); experiment: Caspase-7 enzyme assay, cleavage of fluorogenic substrate; type: biochemical; conditions: second order rate constant of enzyme inactivation; substrate Acetyl-Asp-Glu-val-Asp-amino-4-methylcoumarin
T3 sequence (P55210 24-198 limits assumed): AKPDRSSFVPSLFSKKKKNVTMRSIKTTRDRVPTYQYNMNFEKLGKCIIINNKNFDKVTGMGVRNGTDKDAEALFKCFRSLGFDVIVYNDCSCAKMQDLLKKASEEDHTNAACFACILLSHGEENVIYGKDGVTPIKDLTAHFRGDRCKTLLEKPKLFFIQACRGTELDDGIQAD
T3 sequence (P55210 207-303 limits assumed): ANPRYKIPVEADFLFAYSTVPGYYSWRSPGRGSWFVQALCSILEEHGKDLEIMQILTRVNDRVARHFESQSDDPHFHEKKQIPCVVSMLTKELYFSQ
From the text: as §1, §2

[6] = test system: IL-1β secretion from peripheral blood mononuclear cells (PBMC); experiment: Inhibition of IL-1β secretion from mixed population of PBMC; type: cell-based; conditions: Homo sapiens, LPS 50 ng/ml, 16-18 h, mature IL-1β in supernatant
Protocol: Processing of pre-IL-1β by caspase-1 can be measured in cell culture using a variety of cell sources. Human PBMC obtained from healthy donors provides a mixed population of lymphocyte and mononuclear cells that produce a spectrum of interleukins and cytokines in response to many classes of physiological stimulators.
The test compound is dissolved in dimethyl sulfoxide (DMSO,Sigma #D-2650) to give a 100 mM stock solution. This is diluted in complete medium consisting of RPMI containing 10% heat inactivated FCS (Gibco BRL #10099-141), 2 mM L-Glutamine (Sigma, #G-7513), 100U penicillin and 100 μg/ml streptomycin (Sigma #P-7539). The final concentration range of test compound is from 100 μM down to 6 nM over eight dilution steps. The highest concentration of test compound is equivalent to 0.1% DMSO in the assay.
Human PBMC are isolated from Buffy Coats obtained from the blood bank using centrifugation on Ficoll-Paque leukocyte separation medium (Amersham, #17-1440-O2) and the cellular assay is performed in a sterile 96 well flat-bottomed plate (Nunc). Each well contains 100 μl of the cell suspension, 1×10^5 cells, 50 μl of compound dilutions and 50 μl of LPS (Sigma #L-3012) at 50 ng/ml final concentration. Controls consist of cells ± LPS stimulation and a serial dilution of DMSO diluted in the same way as compound. The plates are incubated for 16-18 h at 37° C. in 5% CO2 & 95% humidity atmosphere.
After 16-18 h the supernatants are harvested after centrifuging the plates at 100×g at 18° C. for 15 min and assayed for their IL-1β content. Measurement of mature IL-1β in the supernatant is performed using the Quantikine kits (R&D Systems) according to manufacturer's instructions. Mature IL-1β levels of about 600-1500 pg/ml are observed for PBMCs in positive control wells.
The inhibitory potency of the compounds can be represented by an IC50 value, which is the concentration of inhibitor at which 50% of the mature IL-1β is detected in the supernatant as compared to the positive controls.

IC50 [1] | Caspase-8 Kinact [2] | Kinact [3] | Kinact [4] | Caspase-7 Kinact [5] | Structure (SMILES) | IC50 [6]
210 nM | 6750 M⁻¹ s⁻¹ | 51000 M⁻¹ s⁻¹ | 36000 M⁻¹ s⁻¹ |  | Cc1cccc(=O)n1CC(=O)NC(CC(=O)O)C(=O)CF (stereo not drawn) [Compound 1A-3, 5-Fluoro-3-[2-(6-methyl-2-oxo-2H-pyridin-1-yl)-acetylamino]-4-oxo-pentanoic acid] | 
650 nM | 13500 M⁻¹ s⁻¹ |  | 40000 M⁻¹ s⁻¹ |  | O=C(O)CC(NC(=O)Cn1ccc(-c2ccccc2)cc1=O)C(=O)CF (stereo not drawn) [Compound 1A-4, 5-Fluoro-3-[2-(4-phenyl-2-oxo-2H-pyridin-1-yl)-acetylamino]-4-oxo-pentanoic acid] | 
140 nM | 12000 M⁻¹ s⁻¹ | 24000 M⁻¹ s⁻¹ | 47000 M⁻¹ s⁻¹ |  | C[C@@H](C(=O)NC(CC(=O)O)C(=O)CF)n1c(=O)ccc2ccccc21 (stereo partly drawn) [Compound 1B-1, 5-Fluoro-4-oxo-3-[(S)-2-(2-oxo-2H-quinolin-1-yl)-propionylamino]-pentanoic acid] | 
60 nM | 27000 M⁻¹ s⁻¹ | 130000 M⁻¹ s⁻¹ | 248000 M⁻¹ s⁻¹ | 26000 M⁻¹ s⁻¹ | O=C(O)CC(NC(=O)Cn1ccc2ccccc2c1=O)C(=O)CF (stereo not drawn) [Compound 1C-1, 5-Fluoro-4-oxo-3-[2-(1-oxo-1H-isoquinolin-2-yl)-acetylamino]-pentanoic acid] | 2900 nM
20 nM | 72500 M⁻¹ s⁻¹ | 185000 M⁻¹ s⁻¹ | 419000 M⁻¹ s⁻¹ |  | CCC[C@@H](C(=O)NC(CC(=O)O)C(=O)CF)n1cnc2ccccc2c1=O (stereo partly drawn) [Compound 1C-11, 5-Fluoro-4-oxo-3-[(2S)-2-(4-oxo-4H-quinazolin-3-yl)-pentanoylamino]-pentanoic acid] | 400 nM
20 nM | 77000 M⁻¹ s⁻¹ | 67000 M⁻¹ s⁻¹ | 107000 M⁻¹ s⁻¹ |  | CC(C)[C@@H](C(=O)NC(CC(=O)O)C(=O)CF)N1Cc2ccccc2N(Cc2cccc(Cl)c2)C1=O (stereo partly drawn) [Compound 1D-1, 5-Fluoro-4-oxo-3-[(2S)-2-[1-(3-chlorobenzyl)-2-oxo-1,4-dihydro-2H-quinazolin-3-yl]-3-methyl-butyrylamino]-pentanoic acid] | 
70 nM | 13500 M⁻¹ s⁻¹ | 64000 M⁻¹ s⁻¹ | 46000 M⁻¹ s⁻¹ |  | O=C(O)CC(NC(=O)Cn1cnc2sccc2c1=O)C(=O)CF (stereo not drawn) [Compound 1E-1, 5-Fluoro-4-oxo-3-[2-(4-oxo-4H-thieno[2,3-d]pyrimidin-3-yl)-acetylamino]-pentanoic acid] | 10000 nM
30 nM | 15500 M⁻¹ s⁻¹ | 220000 M⁻¹ s⁻¹ | 115000 M⁻¹ s⁻¹ |  | C[C@@H](C(=O)NC(CC(=O)O)C(=O)CF)N1C(=O)c2ccccc2C1=O (stereo partly drawn) [Compound 1F-3, 5-Fluoro-4-oxo-3-[(2S)-2-(1,3-dioxo-1,3-dihydro-isoindol-2-yl)-propionylamino]-pentanoic acid] | 4000 nM
20 nM | 68500 M⁻¹ s⁻¹ | 420000 M⁻¹ s⁻¹ | 307000 M⁻¹ s⁻¹ | 147000 M⁻¹ s⁻¹ | CC[C@@H](C(=O)NC(CC(=O)O)C(=O)CF)n1cnccc1=O (stereo partly drawn) [Compound 1G-1, 5-Fluoro-4-oxo-3-[(2S)-2-(6-oxo-6H-pyrimidin-1-yl)-butyrylamino]-pentanoic acid] | 600 nM
